Experimental findings from patent US20240376154A1, “BIS-INTERCALATING PEPTIDES, CONJUGATES AND METHODS OF USE” (ZYMEWORKS BC INC., priority 2023, published 2024) are described below.

Where two headings read alike, the source gives them in different places. Where a SMILES comes first, the peptide text is derived from it. Bridges are numbered along the chain shown (N, C = ends). Roman numbers before positions name the chains, in order. [ ]: non-standard residue; d: D form. The star is where a group is joined. Quinaldoyl(3-OH) = O=C(c1nc2ccccc2cc1O)*; NMeV = CN[C@H](C(=O)O)C(C)C; Pip = O=C(O)[C@@H]1CCCCN1; dDap = NC[C@@H](N)C(=O)O; Sar = CNCC(=O)O

For series [1], the system named is tumour cells (at least 4 of a panel of ovarian, breast, lung, pancreatic, placenta, colon cell lines). In words: In vitro cytotoxicity (cell proliferation, CellTiter-Glo), average over tumour cell line panel. The series is classed as cell-based. As to conditions: for pIC50 (average): average pIC50 on all cell lines tested, 5 nights incubation, CellTiter-Glo. Put shortly: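 Each cell line seeded at ~1000 cells/well and left to adhere overnight, then given a 10-point 1:3 compound titration for 5 nights at 37° C, 5% CO2. Viability read by CellTiter-Glo luminescence; IC50 per line, reported as pIC50 averaged across at least 4 lines.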

The next series deals with herring sperm DNA. In words: DNA melting temperature by differential scanning calorimetry (DSC). It is filed as binding. The settings on record: DSC; herring sperm DNA; DNA melting temperature = 68° C. The protocol:
(§1) Representative compounds prepared as described in Example 2 were assessed in two complementary DNA-binding assays. Increased melting temperature of herring sperm DNA was measured using differential scanning calorimetry (DSC) and binding kinetics were determined by surface plasmon resonance (SPR) using a short DNA hairpin sequence.
DSC experiments were conducted as described in Leng, 2003, Nucleic Acids Res., 31 (21): […], using a Nano DSC (TA Instruments, New Castle, DE) and analyzed using the NanoAnalyze™ software package. Herring sperm DNA solution (Invitrogen 15634017, 10 mg/mL) was diluted to 1 mg/mL (1.4 mM base pair) in BPE buffer (6 mM Na2HPO4, 2 mM NaH2PO4, 1 mM Na4EDTA, pH 7.0). Test articles (20 μL, 10 mM in DMSO) were added and allowed reach equilibrium binding (>3 h), any insoluble material was removed by low-speed centrifugation, then samples were heated from 25 to 110° C. at a scan rate of 1° C./min. Melting curves were plotted and melting temperature was determined using NanoAnalyze™.

The nature of series [2]: Lipophilicity by experimental HPLC retention time. The settings on record: HPLC retention time as measure of lipophilicity; C18, 10 to 90% CH3CN/H2O with 0.1% FA over 25 min. It is filed as physicochemical. An outline of the steps:
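Reversed-phase HPLC with diode array detection on a Kinetex EVO C18 150×4.6, 2.6 μm column. Gradient 10 to 90% CH3CN/H2O with 0.1% FA over 25 min; retention time serves as the lipophilicity measure.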

The nature of series [3]: Stability in female mouse plasma. The series is classed as in vitro ADME. As to conditions: 37° C., 24 h; for half-life at 1 μM: female, mouse, plasma; for plasma stability (in words): 1 μM. The protocol: The stability of exemplary compounds of general Formula I in mouse plasma was evaluated as follows.
Compounds were incubated at 1 μM in duplicate in female mouse plasma, 250 μL final volume, at 37° C. for 24 h. Aliquots were sampled at 0, 15, 30, 60, 120, 240, 480 and 1440 min. Proteins were precipitated by addition of 5 volumes of cold methanol. After centrifugation 10000×g for 10 min, the residual concentration of compound in the supernatant was measured using an appropriate LC-MS/MS method. The measured concentrations were expressed as a function of time through a one-phase decay exponential regression calculated using GraphPad Prism software (GraphPad Software, Inc.) to generate the plasma half-life for each compound.

The test system of series [4] is biotinylated hairpin DNA sequence 5'-GCATGCTTTTGCATGC
In words: DNA binding by surface plasmon resonance (SPR). The settings on record: for KD (mM): SPR, 25° C., hairpin DNA. The protocol:
as §1
SPR experiments were conducted at 25° C. using a Biacore™ T200 instrument and SA-Biotin chip. PBST Buffer: Gibco PBS, pH 7.4 was modified with Tween®20 (0.01%) and DMSO (2%). Immobilization: a short biotinylated hairpin DNA sequence 5′-GCATGCTTTTGCATGC (5′ biotin) (SEQ ID NO: 1) that contains two known sandramycin binding segments (in bold) was heated to 90° C., cooled to RT then immobilized to 700 RU. Bis-intercalating peptides at concentrations of 5, 2.5, 1.25, 0.625, and 0.312 μM in PBST were flowed over the chip at 20 μL/min with an association time of 600 s followed by dissociation for 600 s. Reference cell values were subtracted and binding constants ka, kd, and KD were determined using Biacore™ T200 Evaluation Software, version 3.0.

The conditions of series [5]: amide bond, 32-membered ring.

As for `CC(C)[C@H]1C(=O)NC[C@@H](NC(=O)c2nc3ccccc3cc2O)C(=O)N2CCCC[C@H]2C(=O)NCC(=O)N(C)CC(=O)N(C)[C@@H](C(C)C)C(=O)OC[C@@H](NC(=O)c2nc3ccccc3cc2O)C(=O)N2CCCC[C@H]2C(=O)NCC(=O)N(C)CC(=O)N1C` [Compound 14, N,N′-((7R,11S,19aS,26R,30S,38aS)-11,30-diisopropyl-12,15,31,34-tetramethyl-6,10,13,16,19,25,29,32,35,38-decaoxotetratriacontahydro-2H,6H,10H-dipyrido[2,1-b1: 2′,1′-l][1]oxa[4,7,10,13,17,20,23,26,29]nonaazacyclodotriacontine-7,26-diyl)bis(3-hydroxyquinoline-2-carboxamide)], in series [1], the “pIC50 (average)” value is 8.5. In addition, the “DNA melt (° C.)” value in the series with herring sperm DNA is 97 °C. Further, the “HPLC” value in series [2] is recorded as 19.6 min. For the same compound, the half-life at 1 μM in series [3] is 12.3 h.
Turning to `CC[C@H](C)[C@H]1C(=O)NC[C@@H](NC(=O)c2nc3ccccc3cc2O)C(=O)N2CCCC[C@H]2C(=O)NCC(=O)N(C)CC(=O)N(C)[C@@H]([C@@H](C)CC)C(=O)NC[C@@H](NC(=O)c2nc3ccccc3cc2O)C(=O)N2CCCC[C@H]2C(=O)NCC(=O)N(C)CC(=O)N1C` [Compound 67, N,N′-((7R,11S,19aS,26R,30S,38aS)-11,30-di((S)-sec-butyl)-12,15,31,34-tetramethyl-6,10,13,16,19,25,29,32,35,38-decaoxohexatriacontahydro-2H,6H-dipyrido[1,2-a:1′,2′-q][1,4,7,10,13,17,20,23,26,29]decaazacyclodotriacontine-7,26-diyl)bis(3-hydroxyquinoline-2-carboxamide)], the “pIC50 (average)” value in series [1] was 8.6. Further, the “DNA melt (° C.)” value in the series on herring sperm DNA came out at 91 °C. For the same compound, the “HPLC” value in series [2] stood at 18.8 min. Also, the “plasma stability (in words)” value in series [3] is recorded as “stability over the course of the experiment”.
`CCN1CC(=O)N(C)[C@@H](C(C)C)C(=O)NC[C@@H](NC(=O)c2nc3ccccc3cc2O)C(=O)N2CCCC[C@H]2C(=O)NCC(=O)N(CC)CC(=O)N(C)[C@@H](C(C)C)C(=O)NC[C@@H](NC(=O)c2nc3ccccc3cc2O)C(=O)N2CCCC[C@H]2C(=O)NCC1=O` [Compound 132, N,N′-((7R,11S,19aS,26R,30S,38aS)-15,34-diethyl-11,30-diisopropyl-12,31-dimethyl-6,10,13,16,19,25,29,32,35,38-decaoxohexatriacontahydro-2H,6H-dipyrido[1,2-a:1′,2′-q][1,4,7,10,13,17,20,23,26,29]decaazacyclodotriacontine-7,26-diyl)bis(3-hydroxyquinoline-2-carboxamide)]: in series [1], the “pIC50 (average)” value was 8.6. Besides, the “HPLC” value in series [2] came to 18.5 min. For the same compound, the “plasma stability (in words)” value in series [3] was “stability over the course of the experiment”.
In the case of `CC(C)[C@H]1C(=O)NC[C@@H](NC(=O)c2nc3ccccc3cc2O)C(=O)N2CCCC[C@H]2C(=O)NCC(=O)NCC(=O)N(C)[C@@H](C(C)C)C(=O)NC[C@@H](NC(=O)c2nc3ccccc3cc2O)C(=O)N2CCCC[C@H]2C(=O)NCC(=O)NCC(=O)N1C` [Compound 137, N,N′-((7R,11S,19aS,26R,30S,38aS)-11,30-diisopropyl-12,31-dimethyl-6,10,13,16,19,25,29,32,35,38-decaoxohexatriacontahydro-2H,6H-dipyrido[1,2-a:1′,2′-q][1,4,7,10,13,17,20,23,26,29]decaazacyclodotriacontine-7,26-diyl)bis(3-hydroxyquinoline-2-carboxamide)] (I: {Quinaldoyl(3-OH)}-[dDap][Pip]GG[NMeV] / II: {Quinaldoyl(3-OH)}-[dDap][Pip]GG[NMeV]; amide I:1-II:C, I:C-II:1), in series [1], the “activity in cell assays (in words)” value is “inactive in cell assays” and the “pIC50 (average)” value is “Inactive”. Besides, in series [4], the “DNA binding via SPR (in words)” value is given as “did not demonstrate measurable DNA binding” and the “KD (mM)” value is on record as “none”. The “HPLC” value in series [2] is reported as 15.1 min.
Regarding `CC(C)[C@@H]1NC(=O)CN(C)C(=O)CNC(=O)[C@@H]2CCCCN2C(=O)[C@H](NC(=O)c2nc3ccccc3cc2O)CNC(=O)[C@H](C(C)C)NC(=O)CN(C)C(=O)CNC(=O)[C@@H]2CCCCN2C(=O)[C@H](NC(=O)c2nc3ccccc3cc2O)CNC1=O` [Compound 152] (I: {Quinaldoyl(3-OH)}-[dDap][Pip]G[Sar]V / II: {Quinaldoyl(3-OH)}-[dDap][Pip]G[Sar]V; amide I:1-II:C, I:C-II:1), in series [1], the “pIC50 (average)” value is given as 6.9. Moreover, the “DNA binding via SPR (in words)” value in series [4] is reported as “near complete loss of binding”. Moreover, the “HPLC” value in series [2] was found to be 14.6 min.
Take `CC(C)[C@H]1COC[C@@H](NC(=O)c2nc3ccccc3cc2O)C(=O)N2CCCC[C@H]2C(=O)NCC(=O)N(C)CC(=O)N(C)[C@@H](C(C)C)C(=O)NC[C@@H](NC(=O)c2nc3ccccc3cc2O)C(=O)N2CCCC[C@H]2C(=O)NCC(=O)N(C)CC(=O)N1C` [Compound 178, N,N′-((7R,11S,19aS,26R,30S,38aS)-11,30-diisopropyl-12,15,31,34-tetramethyl-6,13,16,19,25,29,32,35,38-nonaoxotetratriacontahydro-2H,6H,10H-dipyrido[2,1-b1: 2′,1′-l][1]oxa[4,7,10,13,17,20,23,26,29]nonaazacyclodotriacontine-7,26-diyl)bis(3-hydroxyquinoline-2-carboxamide)]: in series [1], the “pIC50 (average)” value amounted to 8.1. Further, the “DNA melt (° C.)” value in the series with herring sperm DNA turned out to be 92 °C. In addition, the “HPLC” value in series [2] is recorded as 18.4 min. Besides, the “plasma stability (in words)” value in series [3] is “stability over the course of the experiment”.
As to `CC(C)[C@H]1C(=O)NCC(=O)N(C)CC(=O)N2CCCC[C@H]2C(=O)NC[C@@H](NC(=O)c2nc3ccccc3cc2O)C(=O)N(C)[C@@H](C(C)C)C(=O)NCC(=O)N(C)CC(=O)N2CCCC[C@H]2C(=O)NC[C@@H](NC(=O)c2nc3ccccc3cc2O)C(=O)N1C` [Compound 414, N,N′-((13S,16R,19aS,32S,35R,38aS)-13,32-diisopropyl-8,14,27,33-tetramethyl-6,9,12,15,19,25,28,31,34,38-decaoxohexatriacontahydro-2H,6H-dipyrido[2,1-c: 2′,1′-s][1,4,7,10,13,17,20,23,26,29]decaazacyclodotriacontine-16,35-diyl)bis(3-hydroxyquinoline-2-carboxamide)], in series [1], the “activity in cell assays (in words)” value was “inactive” and the “pIC50 (average)” value was “inactive”. Moreover, in series [4], the “DNA binding via SPR (in words)” value is recorded as “non-binding” and the “KD (mM)” value is given as “none”. Besides, the “HPLC” value in series [2] amounted to 16.8 min.
Turning to `CCOC(=O)[C@H](CCc1ccccc1)N[C@@H](C)C(=O)N1CCC[C@H]1C(=O)O` [Enalapril, reference compound], in series [3], the half-life at 1 μM was 2.7 h.
On to “(7R,11S,19aS,26R,38aS)-26-(((benzyloxy)carbonyl)amino)-11-isopropyl-12,15,30,30,31,34-hexamethyl-6,10,13,16,19,25,29,32,35,38-decaoxohexatriacontahydro-2H,6H-dipyrido[1,2-a:1′,2′-q][1,4,7,10,13,17,20,23,26,29]decaazacyclodotriacontin-7-aminium trifluoroacetate”, for which the ring closure, yield after HPLC in series [5] (2 steps) was found to be 45%.
Regarding “Benzyl N-[(3R,7S,20S,27R,31S,44S)-27-[(tert-butoxycarbonyl)amino]-15,39-dimethyl-2,6,13,16,19,26,30,37,40,43-decaoxo-1,5,12,15,18,25,29,36,39,42-decaazapentacyclo[42.4.0.0^7,12.0^20,25.0^31,36]octatetracontan-3-yl]carbamate”, the ring closure, yield after HPLC in series [5] is 40%.
